{"source": "PubChem BioAssay AID1963984", "about": "(Molecular Pharmacology Branch, DTP, NCI, 2024);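 note: spheroids exposed to agents for seven days before readout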;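 for viability, T/C: percent viability relative to DMSO vehicle control taken as 100%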", "test_system": "233499-124-R-J3-PDC spheroids with HUVEC/MSC, viability", "assay": "Anticancer human tumor 233499-124-R-J3-PDC patient-derived colon adenocarcinoma cell line growth inhibition [PI3K]", "conditions": "for IC50: curve of first compound; for viability, T/C: stronger effect = lower value", "source_text": "Combinatorial screen of targeted agents with the PI3K inhibitors inavolisib, alpelisib, duvelisib, and copanlisib in multi-cell type tumor spheroids\nA high-throughput screen of multi-cell type tumor spheroids was designed to identify active combinations of targeted small molecules and PI3K pathway inhibitors. Complex spheroids include a stromal component modeled by human endothelial cells (HUVEC) and fibroblasts modeled by human mesenchymal stem cells (MSCs). The concentration ranges selected for each drug and investigational agent were based upon clinically achievable concentrations if the clinical Cmax of the agent was known.\nCompounds. The drugs and investigational agents: inavolisib (NSC800729), alpelisib (NSC765974), duvelisib (NSC772469), copanlisib (NSC816437), ipatasertib (NSC767898), afuresertib (NSC778305), talazoparib (NSC767125), sapanisertib (NSC764658), selumetinib (NSC741078), tovorafenib (DAY101, NSC766906), vemurafenib (NSC761431), ravoxertinib (NSC781343), sotorasib (NSC818433), MRTX1133 (NSC 836407), abemaciclib (NSC 768073), palbociclib (NSC758247), venetoclax (NSC 766270), SY5609 (NSC837396), enzalutamide (NSC755605), and darolutamide (NSC825331), were obtained from the National Cancer Institute (NCI) Developmental Therapeutics Program Chemical Repository. The FDA-approved anticancer drug set is available from the NCI Developmental Therapeutics Program. […] The stock solutions were prepared in dimethyl sulfoxide (DMSO, Sigma-Aldrich, St. Louis, MO, cat. D2650) at 800-fold the tested concentration and stored at -70 degrees C prior to their use. All drugs and investigational agents were tested over a range starting from a high concentration at or near the clinical Cmax and decreasing in half-log increments. If the clinical Cmax for an agent had not been determined, the highest concentration tested was 10 microM.\nCell Culture. All cells were maintained in an incubator at 37 degrees C and 5% CO2 with 95% humidity. The PDC lines were cultured according to standard operating procedures established by the NCI PDMR (https://pdmr.cancer.gov/sops/default.htm). All PDCs were thawed and cultured in Matrigel-coated flasks prepared with a working solution of 1X Ham's F-12 nutrient mix, without supplementation (Invitrogen, Waltham, MA, cat. 11765054), 100 U/mL penicillin-streptomycin (Invitrogen, cat. 15140122), and 2.5% Matrigel (Corning Inc., Corning, NY, cat. 354248) for the first three passages. The 354836-022-R-J1-PDC, 475296-252-R-J1-PDC, and 997726-040-R-J2-PDC lines were cultured in 6A media, which includes advanced DMEM/F-12 (Thermo Fisher Scientific, cat. 12634028), 10 mM HEPES (Thermo Fisher Scientific, cat. 15630080), 1X GlutaMAX supplement (Thermo Fisher Scientific, cat. 35050061), 0.1 mg/mL primocin (InvivoGen, San Diego, CA, cat. ant-pm-2), 10% defined fetal bovine serum, heat inactivated (HyClone Laboratories Inc., Logan, UT, cat. SH30070.03HI), 50% L-WRN conditioned media (ATCC, cat. CRL-3276), 1.25 mM N-Acetyl-L-cysteine (Sigma-Aldrich, cat. A9165), 10 mM nicotinamide (Sigma-Aldrich, cat. N0636), 1X B-27 supplement (Thermo Fisher Scientific, cat. 17504044), 1X N-2 supplement (Thermo Fisher Scientific, cat. 17502048), and 10 microM Y-27632 dihydrochloride (Tocris Bioscience, Bristol, United Kingdom, cat. 1254). The 624824-186-R-J2-PDC line was cultured in 6C/Colon 1B media, which includes all 6A media components plus 50 ng/mL human EGF recombinant protein (Thermo Fisher Scientific, cat. PHG0311). […]", "data": [{"smiles": "CCN1CCN(Cc2ccc(Nc3ncc(F)c(-c4cc(F)c5nc(C)n(C(C)C)c5c4)n3)nc2)CC1", "note": "+ Cc1nc(NC(=O)N2CCCC2C(N)=O)sc1-c1ccnc(C(C)(C)C(F)(F)F)c1", "values": [{"measurement": "IC50", "setting": "second compound 0.0316 µM", "value": 0.547, "unit": "µM"}, {"measurement": "IC50", "setting": "second compound 0.1 µM", "value": 0.658, "unit": "µM"}, {"measurement": "IC50", "setting": "second compound 0.316 µM", "value": 0.164, "unit": "µM"}, {"measurement": "IC50", "setting": "second compound 1 µM", "value": 0.036, "unit": "µM"}, {"measurement": "IC50", "setting": "second compound 3.16 µM", "value": 0.00726, "unit": "µM"}, {"measurement": "IC50", "setting": "second compound 10 µM", "value": "< 0.00316", "unit": "µM"}, {"measurement": "viability, T/C", "setting": "second compound 0.0316 µM, first compound 0.00316 µM", "value": 67.3, "unit": "%"}, {"measurement": "viability, T/C", "setting": "second compound 0.0316 µM, first compound 0.01 µM", "value": 90.7, "unit": "%"}, {"measurement": "viability, T/C", "setting": "second compound 0.0316 µM, first compound 0.0316 µM", "value": 74, "unit": "%"}, {"measurement": "viability, T/C", "setting": "second compound 0.0316 µM, first compound 0.1 µM", "value": 79.7, "unit": "%"}, {"measurement": "viability, T/C", "setting": "second compound 0.0316 µM, first compound 0.316 µM", "value": 59.5, "unit": "%"}, {"measurement": "viability, T/C", "setting": "second compound 0.0316 µM, first compound 1 µM", "value": 39.6, "unit": "%"}, {"measurement": "viability, T/C", "setting": "second compound 0.1 µM, first compound 0.00316 µM", "value": 72.5, "unit": "%"}, {"measurement": "viability, T/C", "setting": "second compound 0.1 µM, first compound 0.01 µM", "value": 86.7, "unit": "%"}, {"measurement": "viability, T/C", "setting": "second compound 0.1 µM, first compound 0.0316 µM", "value": 67.5, "unit": "%"}, {"measurement": "viability, T/C", "setting": "second compound 0.1 µM, first compound 0.1 µM", "value": 52.6, "unit": "%"}, {"measurement": "viability, T/C", "setting": "second compound 0.1 µM, first compound 0.316 µM", "value": 66.6, "unit": "%"}, {"measurement": "viability, T/C", "setting": "second compound 0.1 µM, first compound 1 µM", "value": 43.4, "unit": "%"}, {"measurement": "viability, T/C", "setting": "second compound 0.316 µM, first compound 0.00316 µM", "value": 94.8, "unit": "%"}, {"measurement": "viability, T/C", "setting": "second compound 0.316 µM, first compound 0.01 µM", "value": 79.2, "unit": "%"}, {"measurement": "viability, T/C", "setting": "second compound 0.316 µM, first compound 0.0316 µM", "value": 71.9, "unit": "%"}, {"measurement": "viability, T/C", "setting": "second compound 0.316 µM, first compound 0.1 µM", "value": 47.6, "unit": "%"}, {"measurement": "viability, T/C", "setting": "second compound 0.316 µM, first compound 0.316 µM", "value": 49.5, "unit": "%"}, {"measurement": "viability, T/C", "setting": "second compound 0.316 µM, first compound 1 µM", "value": 30.7, "unit": "%"}, {"measurement": "viability, T/C", "setting": "second compound 1 µM, first compound 0.00316 µM", "value": 52.5, "unit": "%"}, {"measurement": "viability, T/C", "setting": "second compound 1 µM, first compound 0.01 µM", "value": 49.5, "unit": "%"}, {"measurement": "viability, T/C", "setting": "second compound 1 µM, first compound 0.0316 µM", "value": 49.7, "unit": "%"}, {"measurement": "viability, T/C", "setting": "second compound 1 µM, first compound 0.1 µM", "value": 49.2, "unit": "%"}, {"measurement": "viability, T/C", "setting": "second compound 1 µM, first compound 0.316 µM", "value": 38.4, "unit": "%"}, {"measurement": "viability, T/C", "setting": "second compound 1 µM, first compound 1 µM", "value": 21.3, "unit": "%"}, {"measurement": "viability, T/C", "setting": "second compound 3.16 µM, first compound 0.00316 µM", "value": 55.4, "unit": "%"}, {"measurement": "viability, T/C", "setting": "second compound 3.16 µM, first compound 0.01 µM", "value": 49.1, "unit": "%"}, {"measurement": "viability, T/C", "setting": "second compound 3.16 µM, first compound 0.0316 µM", "value": 37.7, "unit": "%"}, {"measurement": "viability, T/C", "setting": "second compound 3.16 µM, first compound 0.1 µM", "value": 36.6, "unit": "%"}, {"measurement": "viability, T/C", "setting": "second compound 3.16 µM, first compound 0.316 µM", "value": 25, "unit": "%"}, {"measurement": "viability, T/C", "setting": "second compound 3.16 µM, first compound 1 µM", "value": 24.4, "unit": "%"}, {"measurement": "viability, T/C", "setting": "second compound 10 µM, first compound 0.00316 µM", "value": 28.1, "unit": "%"}, {"measurement": "viability, T/C", "setting": "second compound 10 µM, first compound 0.01 µM", "value": 21.9, "unit": "%"}, {"measurement": "viability, T/C", "setting": "second compound 10 µM, first compound 0.0316 µM", "value": 27.6, "unit": "%"}, {"measurement": "viability, T/C", "setting": "second compound 10 µM, first compound 0.1 µM", "value": 21.1, "unit": "%"}, {"measurement": "viability, T/C", "setting": "second compound 10 µM, first compound 0.316 µM", "value": 21.3, "unit": "%"}, {"measurement": "viability, T/C", "setting": "second compound 10 µM, first compound 1 µM", "value": 20.7, "unit": "%"}]}]}
